In ChEMBL document CHEMBL3885881, “DrugMatrix”:

Species: Rattus norvegicus
Assay: DrugMatrix - Regimen: Daily Repeat
Assay type: toxicity, organism-based, Sprague-Dawley
Parameters: regimen Daily Repeat, gender Male, age 6-8 weeks
Settings: in vivo, po, route oral GAVAGE, vehicle 100 % WATER; for ABSOLUTE BASOPHIL / ABSOLUTE EOSINOPHIL / ABSOLUTE LYMPHOCYTE / ABSOLUTE MONOCYTE / ABSOLUTE SEGMENTED NEUTROPHIL / BASOPHIL / EOSINOPHIL / ERYTHROCYTE COUNT / HEMATOCRIT / HEMOGLOBIN / LEUKOCYTE COUNT / LYMPHOCYTE / MEAN CORPUSCULAR HEMOGLOBIN / MEAN CORPUSCULAR HEMOGLOBIN CONCENTRATION / MEAN CORPUSCULAR VOLUME / MONOCYTE / NEUTROPHIL / NUCLEATED RED BLOOD CELLS / PLATELET COUNT: tissue Blood; for ALANINE AMINOTRANSFERASE / ALBUMIN / ALKALINE PHOSPHATASE / ASPARTATE AMINOTRANSFERASE / BLOOD UREA NITROGEN / CARBON DIOXIDE / CHLORIDE / CHOLESTEROL / CREATINE PHOSPHOKINASE / CREATININE / GLUCOSE / LACTATE DEHYDROGENASE / LIPASE / PHOSPHORUS / POTASSIUM / SODIUM / TOTAL BILIRUBIN / TOTAL PROTEIN / URIC ACID: tissue Plasma
[1] = 0 mg/kg, 72 h, dose level Control, time 3 day
[2] = 0 mg/kg, 120 h, dose level Control, time 5 day
[3] = 1000 mg/kg, 72 h, dose level High, time 3 day
[4] = 1000 mg/kg, 120 h, dose level High, time 5 day

## Cc1cc(NS(=O)(=O)c2ccc(N)cc2)no1 [SULFAMETHOXAZOLE]
[1]
  ABSOLUTE BASOPHIL: 0 CELLS/uL
  ABSOLUTE EOSINOPHIL: 102 CELLS/uL
  ABSOLUTE LYMPHOCYTE: 12758 CELLS/uL
  ABSOLUTE MONOCYTE: 197.17 CELLS/uL
  ABSOLUTE SEGMENTED NEUTROPHIL: 1259.5 CELLS/uL
  BASOPHIL: 0%
  EOSINOPHIL: 0.83%
  ERYTHROCYTE COUNT: 5.3 x10E6/uL
  HEMATOCRIT: 33.47%
  HEMOGLOBIN: 13.12 G/DL
  LEUKOCYTE COUNT: 14.32 x10E3/uL
  LYMPHOCYTE: 89.33%
  MEAN CORPUSCULAR HEMOGLOBIN: 24.8 pg
  MEAN CORPUSCULAR HEMOGLOBIN CONCENTRATION: 39.18 G/DL
  MEAN CORPUSCULAR VOLUME: 63.25 fL
  MONOCYTE: 1.33%
  NEUTROPHIL: 8.5%
  NUCLEATED RED BLOOD CELLS: 0 /100WBC
  PLATELET COUNT: 1313.17 x10E3/uL
  ALANINE AMINOTRANSFERASE: 52.67 u/L
  ALBUMIN: 4.05 G/DL
  ALKALINE PHOSPHATASE: 372 u/L
  ASPARTATE AMINOTRANSFERASE: 82.83 u/L
  BLOOD UREA NITROGEN: 15 mg/dL
  CARBON DIOXIDE: 25.67 mmol/L
  CHLORIDE: 102.17 MEQ/L
  CHOLESTEROL: 68.83 mg/dL
  CREATINE PHOSPHOKINASE: 285 u/L
  CREATININE: 0.18 mg/dL
  GLUCOSE: 149.17 mg/dL
  LACTATE DEHYDROGENASE: 263.83 u/L
  LIPASE: 10.17 u/L
  PHOSPHORUS: 12.58 mg/dL
  POTASSIUM: 6.58 MEQ/L
  SODIUM: 144.22 MEQ/L
  TOTAL BILIRUBIN: 0.22 mg/dL
  TOTAL PROTEIN: 5.83 G/DL
  URIC ACID: 1.58 mg/dL
[2]
  ABSOLUTE BASOPHIL: 0 CELLS/uL
  ABSOLUTE EOSINOPHIL: 24 CELLS/uL
  ABSOLUTE LYMPHOCYTE: 11134.17 CELLS/uL
  ABSOLUTE MONOCYTE: 56.33 CELLS/uL
  ABSOLUTE SEGMENTED NEUTROPHIL: 1235.5 CELLS/uL
  BASOPHIL: 0%
  EOSINOPHIL: 0.17%
  ERYTHROCYTE COUNT: 5.68 x10E6/uL
  HEMATOCRIT: 35.72%
  HEMOGLOBIN: 13.93 G/DL
  LEUKOCYTE COUNT: 12.45 x10E3/uL
  LYMPHOCYTE: 89.5%
  MEAN CORPUSCULAR HEMOGLOBIN: 24.63 pg
  MEAN CORPUSCULAR HEMOGLOBIN CONCENTRATION: 39.13 G/DL
  MEAN CORPUSCULAR VOLUME: 62.97 fL
  MONOCYTE: 0.5%
  NEUTROPHIL: 9.83%
  NUCLEATED RED BLOOD CELLS: 0 /100WBC
  PLATELET COUNT: 1204 x10E3/uL
  ALANINE AMINOTRANSFERASE: 59.5 u/L
  ALBUMIN: 4.38 G/DL
  ALKALINE PHOSPHATASE: 415.67 u/L
  ASPARTATE AMINOTRANSFERASE: 91.33 u/L
  BLOOD UREA NITROGEN: 17 mg/dL
  CARBON DIOXIDE: 26.33 mmol/L
  CHLORIDE: 104.17 MEQ/L
  CHOLESTEROL: 77 mg/dL
  CREATINE PHOSPHOKINASE: 249.67 u/L
  CREATININE: 0.21 mg/dL
  GLUCOSE: 148.33 mg/dL
  LACTATE DEHYDROGENASE: 168.5 u/L
  LIPASE: 10.17 u/L
  PHOSPHORUS: 12.92 mg/dL
  POTASSIUM: 7.09 MEQ/L
  SODIUM: 148.37 MEQ/L
  TOTAL BILIRUBIN: 0.23 mg/dL
  TOTAL PROTEIN: 6.3 G/DL
  URIC ACID: 1.77 mg/dL
[3]
  ABSOLUTE BASOPHIL: 0 CELLS/uL
  ABSOLUTE EOSINOPHIL: 124.33 CELLS/uL
  ABSOLUTE LYMPHOCYTE: 12097 CELLS/uL
  ABSOLUTE MONOCYTE: 47.67 CELLS/uL
  ABSOLUTE SEGMENTED NEUTROPHIL: 1331 CELLS/uL
  BASOPHIL: 0%
  EOSINOPHIL: 1%
  ERYTHROCYTE COUNT: 5.34 x10E6/uL
  HEMATOCRIT: 34.63%
  HEMOGLOBIN: 13.53 G/DL
  LEUKOCYTE COUNT: 13.6 x10E3/uL
  LYMPHOCYTE: 89%
  MEAN CORPUSCULAR HEMOGLOBIN: 25.37 pg
  MEAN CORPUSCULAR HEMOGLOBIN CONCENTRATION: 39.07 G/DL
  MEAN CORPUSCULAR VOLUME: 64.87 fL
  MONOCYTE: 0.33%
  NEUTROPHIL: 9.67%
  NUCLEATED RED BLOOD CELLS: 0 /100WBC
  PLATELET COUNT: 1220 x10E3/uL
  ALANINE AMINOTRANSFERASE: 53.33 u/L
  ALBUMIN: 4.13 G/DL
  ALKALINE PHOSPHATASE: 298.33 u/L
  ASPARTATE AMINOTRANSFERASE: 88.67 u/L
  BLOOD UREA NITROGEN: 16 mg/dL
  CARBON DIOXIDE: 26 mmol/L
  CHLORIDE: 101 MEQ/L
  CHOLESTEROL: 79.67 mg/dL
  CREATINE PHOSPHOKINASE: 356.33 u/L
  CREATININE: 0.17 mg/dL
  GLUCOSE: 141.33 mg/dL
  LACTATE DEHYDROGENASE: 488.67 u/L
  LIPASE: 10.67 u/L
  PHOSPHORUS: 12.43 mg/dL
  POTASSIUM: 6.92 MEQ/L
  SODIUM: 145.43 MEQ/L
  TOTAL BILIRUBIN: 0.2 mg/dL
  TOTAL PROTEIN: 6.07 G/DL
  URIC ACID: 1.63 mg/dL
[4]
  ABSOLUTE BASOPHIL: 0 CELLS/uL
  ABSOLUTE EOSINOPHIL: 0 CELLS/uL
  ABSOLUTE LYMPHOCYTE: 14525.67 CELLS/uL
  ABSOLUTE MONOCYTE: 88 CELLS/uL
  ABSOLUTE SEGMENTED NEUTROPHIL: 1019.67 CELLS/uL
  BASOPHIL: 0%
  EOSINOPHIL: 0%
  ERYTHROCYTE COUNT: 4.62 x10E6/uL
  HEMATOCRIT: 29.8%
  HEMOGLOBIN: 12.13 G/DL
  LEUKOCYTE COUNT: 15.63 x10E3/uL
  LYMPHOCYTE: 94%
  MEAN CORPUSCULAR HEMOGLOBIN: 26.43 pg
  MEAN CORPUSCULAR HEMOGLOBIN CONCENTRATION: 40.77 G/DL
  MEAN CORPUSCULAR VOLUME: 64.9 fL
  MONOCYTE: 0.33%
  NEUTROPHIL: 5.67%
  NUCLEATED RED BLOOD CELLS: 0 /100WBC
  PLATELET COUNT: 1090.33 x10E3/uL
  ALANINE AMINOTRANSFERASE: 53.33 u/L
  ALBUMIN: 4.1 G/DL
  ALKALINE PHOSPHATASE: 272.5 u/L
  ASPARTATE AMINOTRANSFERASE: 97 u/L
  BLOOD UREA NITROGEN: 17 mg/dL
  CARBON DIOXIDE: 21 mmol/L
  CHLORIDE: 107.5 MEQ/L
  CHOLESTEROL: 73 mg/dL
  CREATINE PHOSPHOKINASE: 1048.33 u/L
  CREATININE: 0.21 mg/dL
  GLUCOSE: 149 mg/dL
  LACTATE DEHYDROGENASE: 184 u/L
  LIPASE: 12 u/L
  PHOSPHORUS: 10.23 mg/dL
  POTASSIUM: 6.38 MEQ/L
  SODIUM: 147.2 MEQ/L
  TOTAL BILIRUBIN: 0.2 mg/dL
  TOTAL PROTEIN: 5.97 G/DL
  URIC ACID: 1.2 mg/dL
